Source: patent US7132540B1, “Hindered spiro-ketal nitroxides” (Nova Molecular Technologies Inc., priority 2001, dated 2006)

Tests used:
[1] = Polymerization of methyl acrylate at 70° C. with benzoyl peroxide in the presence of nitroxide inhibitors; details: methyl acrylate 10 ml, benzoyl peroxide 0.35 g, inhibitor 0.1 g (0.1 ml for 6), water bath 70° C.
Experimental: (§1) Testing was done to determine the effectiveness of various nitroxides in inhibiting the polymerization of various vinyl monomers.
(§2) A sample of vinyl monomer (10 ml) was placed in an open 25 ml test tube. To each tube benzoyl peroxide (0.35 g) and 0.1 g of nitroxide inhibitor was added, then the tubes were placed in a water bath maintained by a thermostat at 70° C. The selected vinyl monomers polymerize under these conditions without nitroxide inhibitors within a few minutes.
(§3) Vinyl monomers: acrylonitrile, vinyl acetate and methyl acrylate.
Polymerization of Methyl Acrylate at 70° C. in the presence of Nitroxide Inhibitors.

[2] = Polymerization of vinyl acetate at 70° C. with benzoyl peroxide in the presence of nitroxide inhibitors; details: vinyl acetate 10 ml, benzoyl peroxide 0.35 g, inhibitor 0.1 g (0.1 ml for 6), water bath 70° C.
Experimental: as §1, §2, §3
Polymerization of Vinyl Acetate at 70° C. in the presence of Nitroxide Inhibitors.

[3] = Polymerization of acrylonitrile at 70° C. with benzoyl peroxide in the presence of nitroxide inhibitors; details: acrylonitrile 10 ml, benzoyl peroxide 0.35 g, inhibitor 0.1 g (0.1 ml for 6), water bath 70° C.
Experimental: as §1, §2, §3
Polymerization of Acrylonitrile at 70° C. in the presence of Nitroxide Inhibitors.

Row | Compound | Inhibition Time [1] [min] | Inhibition Time [2] [min] | Inhibition Time [3] [min]
1 | CC1(C)CCCC(C)(C)N1O [Inhibitor 5] | 180 | 385 | 60
2 | COC1CC(C)(C)N(O)C(C)(C)C1 [Inhibitor 3] | >300 | >300 | 305
3 | CC1(C)CC2(CC(C)(C)N1[O])OCCCO2 [Example 1, 1,5-dioxa-9-aza-8,8,10,10-tetramethylspiro[5,5]undec-9-yloxy] | 165 | 205 | 40
4 | CC1(C)CC2(CC(C)(C)N1[O])OCCCO2 [Example 2, 1,5-dioxa-9-aza-8,8,10,10 tetramethylspiro[5,5]undec-9-yloxy] | 166 | 145 | 60
